Results from patent US20240156754A1, “POWDER COMPOSITION FOR DISINFECTION OF THE TEATS OF DAIRY ANIMALS” (KLARECO SRL, priority 2022, published 2024).
Values joined by “and” are separate entries in the source; they are usually repeats but may differ in a detail not shown here. Identical values can stand only once.

Assay: Accelerated stability test (30° C., 65% RH, 18 weeks)
Format: physicochemical
Procedure: Accelerated stability test has been carried what to assess the quality of a test item prepared as the one in Example 7 during time, under the influence of temperature and humidity.
The test was conducted at 30° C., at 65% of relative humidity (RH), for 18 weeks.
[…], assessing: the appearance of each container (the one containing chloramine T and the one containing the excipients), appearance of the products therein, the weight loss of the products and the content of chloramine T.
Appearance of the test item and of the packaging was assessed under the lab light. Weight loss was assessed weighing each sample at T0 (WT0) and at the final time point (WTx) and compared with their initial value (%) according to the following formula:
Weight loss from initial %=[(WT0−WTx)*100]/(WT0)
The content of chloramine T was assessed as described in Example 7.

[1] = T8 w, single determination, 30° C./65% RH
[2] = T18 w, single determination, 30° C./65% RH

Cc1ccc(S(=O)(=O)[N-]Cl)cc1.[Na+] [Chloramine T, chloramine T]
Available Chlorine, average (T0, average): 24.53 % w/w | CHLORAMINE T anhydrous, average (T0, average): 97.46 % w/w | CHLORAMINE T tri-hydrated, average (T0, average): 78.76 % w/w | CHLORAMINE T anhydrous (T0, single determination): 97.61 % w/w and 97.31 % w/w | CHLORAMINE T tri-hydrated (T0, single determination): 78.88 % w/w and 78.64 % w/w | Available Chlorine (T0, single determination, chloramine T container of kit): 24.57 % w/w and 24.49 % w/w | Available Chlorine, average (T8 w, average, 30° C./65% RH): 0.18 % w/w | CHLORAMINE T anhydrous, average (T8 w, average, 30° C./65% RH): 0.73 % w/w | CHLORAMINE T tri-hydrated, average (T8 w, average, 30° C./65% RH): 0.59 % w/w | Available Chlorine [1]: 0.18 % w/w | CHLORAMINE T anhydrous [1]: 0.73 % w/w | CHLORAMINE T tri-hydrated [1]: 0.59 % w/w | Tx/T0 %, Available Chlorine (T18 w versus T0, 30° C./65% RH): 100.4% | Tx/T0 %, CHLORAMINE T anhydrous (T18 w versus T0, 30° C./65% RH): 100.4% | Tx/T0 %, CHLORAMINE T tri-hydrated (T18 w versus T0, 30° C./65% RH): 100.4% | Available Chlorine, average (T18 w, average, 30° C./65% RH): 24.62 % w/w | CHLORAMINE T anhydrous, average (T18 w, average, 30° C./65% RH): 78.06 % w/w | CHLORAMINE T tri-hydrated, average (T18 w, average, 30° C./65% RH): 97.83 % w/w | Available Chlorine [2]: 24.59 % w/w and 24.86 % w/w | CHLORAMINE T anhydrous [2]: 78.94 % w/w and 79.18 % w/w | CHLORAMINE T tri-hydrated [2]: 97.68 % w/w and 97.99 % w/w | content of active chloramine T compared to T0 (after 18 weeks at 30° C./65% RH): 100.4% | variations in the appearance and weight (after 18 weeks at 30° C./65% RH, envelopes): no significant variations | appearance of the product versus T0 (after 18 weeks at 30° C./65% RH, sealed container): did not present variations from T0
